Read-outs that look alike come from different tables or passages of the source.
Biological target: T1, MCR-1 (Homo sapiens, UniProt Q01726)
T1 construct: expressed in transfected cells; host or cells: HEK 293
Experiment: Melanocortin receptor binding assay, competition with 125I-HP 467, HEK 293 cells expressing hMCR-1
Conditions: for % Disp. MC-1 10 μM: displacement of 125I-HP 467 at 10 μM isoquinoline compound; for IC50: read-out: MC-1 IC50; for % Disp. of 125I-HP 467 (first of duplicate) / % Disp. of 125I-HP 467 (second of duplicate): 10 μM isoquinoline compound; for % Disp. of 125I-HP 467 (first of duplicate): HEK 293 cells expressing MCR-1, duplicate 1; for % Disp. of 125I-HP 467 (second of duplicate): HEK 293 cells expressing MCR-1, duplicate 2
Experimental: All cell culture media and reagents were obtained from GibcoBRL (Gaithersburg Md.), except for COSMIC CALF SERUM (HyClone; Logan Utah).
Cells were suspended in PBS, 10% COSMIC CALF SERUM and 1 mM CaCl2. Cell suspensions were prepared at a density of 2×10^4 cells/ml for HEK 293 cells expressing hMCR-3, hMCR-4 or hMCR-5, and 1×10^5 cells/ml for HEK 293 cells expressing hMCR-1. Suspensions were placed in a water bath and allowed to warm to 37° C. for 1 hr.
Binding assays were performed in a total volume of 250 μl for HEK 293 cells. […] To each tube was added 4×10^3 HEK 293 cells expressing hMCR-3, hMCR-4 or hMCR-5, or 2×10^4 cells expressing hMCR-1. Assays were incubated for 2.5 hr at 37° C.
GF/B filter plates were prepared by soaking for at least one hour in 5 mg/ml BSA and 10 mM CaCl2. Assays were filtered using a Brandel 96-well cell harvester (Brandel Inc.; Gaithersburg, Md.). The filters were washed four times with cold 50 mM Tris, pH 7.4, the filter plates were dehydrated for 2 hr and 35 μl of MICROSCINT was added to each well. Filter plates were counted using a Packard Topcount (Packard Instrument Co.) and data analyzed using GraphPad PRISM v2.0 (GraphPad Software Inc.; San Diego Calif.) and Microsoft EXCEL v5.0a (Microsoft Corp.; Redmond Wash.).
To assay isoquinoline compounds, binding assays were performed in duplicate in a 96 well format. […] A 0.2 ml aliquot of suspended cells was added to each well to give the cell numbers indicate above, and the cells were incubated at 37° C. for 2.5 hr. Cells were harvested on GF/B filter plates as described above and counted.

[1] = inhibition of binding of 125I-HP 467, HEK 293 cells expressing MCR-1
[2] = competition with 125I-HP 467, HEK 293 cells expressing MCR-1

T1 sequence (Q01726 whole entry): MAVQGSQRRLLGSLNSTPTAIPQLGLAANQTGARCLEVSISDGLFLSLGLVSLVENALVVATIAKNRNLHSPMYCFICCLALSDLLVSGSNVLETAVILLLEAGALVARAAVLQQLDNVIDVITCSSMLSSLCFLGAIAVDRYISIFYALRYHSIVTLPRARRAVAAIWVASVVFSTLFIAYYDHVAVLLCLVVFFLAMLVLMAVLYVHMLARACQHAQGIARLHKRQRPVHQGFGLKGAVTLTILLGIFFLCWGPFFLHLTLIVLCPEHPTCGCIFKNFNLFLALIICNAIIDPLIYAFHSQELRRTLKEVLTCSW

% Disp. MC-1 10 μM (first of duplicate) [%] | % Disp. MC-1 10 μM (second of duplicate) [%] | Compound | also measured
42.2 | 43.2 | CNC(CN)CN1Cc2ccccc2C(CNC2CCCCC2)C1c1ccc2ccccc2n1 (mixture of isomers) [TRG 2405-112] | –
– | – | CCCCCc1ccc(C2C(CNCCc3ccccc3)c3ccccc3CN2CCCCC(CN)NCCc2ccccc2)cc1 (stereo not drawn) [TRG 2412-14] | IC50 [1]: 880 nM
– | – | CNC(CN)CCCCN1Cc2ccccc2C(CNC2CCCCC2)C1c1cc(C)c(O)c(C)c1 (stereo not drawn) [TRG 2405-212] | % Disp. of 125I-HP 467 (first of duplicate): 54.8%; % Disp. of 125I-HP 467 (second of duplicate): 45.8%
– | – | CCCCNc1ccc(C2C(CN)c3ccccc3CN2CCCCC(CN)NC)cc1 (stereo not drawn) [TRG 2411-100] | IC50 [2]: 130 nM
81.6 | 11.3 | NCCN1Cc2ccccc2C(CNC2CCCCC2)C1c1ccc(O)cc1 (stereo not drawn) [TRG 2405-66] | –
– | – | CNC(CN)CCCCN1Cc2ccccc2C(CNC2CCCCC2)C1c1c(F)cccc1Cl (stereo not drawn) [TRG 2405-194] | % Disp. of 125I-HP 467 (first of duplicate): 50.7%; % Disp. of 125I-HP 467 (second of duplicate): 51.4%
49.7 | 54.4 | NCCN1Cc2ccccc2C(CNC2CCCCC2)C1c1cccc(Br)c1 (stereo not drawn) [TRG 2405-37] | –
54.7 | 52.8 | NCCN1Cc2ccccc2C(CNC2CCCCC2)C1c1cc(Cl)cc(Cl)c1 (stereo not drawn) [TRG 2405-30] | –
44.7 | 50.4 | CNC(CN)CN1Cc2ccccc2C(CNC2CCCCC2)C1c1ccccc1Br (stereo not drawn) [TRG 2405-102] | –
– | – | CNCCNC(CN)CCCCN1Cc2ccccc2C(CNCCc2ccccc2)C1c1ccc(-c2ccccc2)cc1 (stereo not drawn) [TRG 2411-4] | IC50 [2]: 700 nM
– | – | CCCCNc1ccc(C2C(CN)c3ccccc3CN2CCCCC(CN)N2CCCC2)cc1 (stereo not drawn) [TRG 2411-103] | IC50 [2]: 20 nM
– | – | CCCCCc1ccc(C2C(CNCCc3ccccc3)c3ccccc3CN2CCCCC(CN)NCc2ccccc2)cc1 (stereo not drawn) [TRG 2412-15] | IC50 [1]: 750 nM
44.5 | 54.4 | CNC(CN)CN1Cc2ccccc2C(CNC2CCCCC2)C1c1ccc(F)c(F)c1F (stereo not drawn) [TRG 2405-96] | –
– | – | NCCNC(CN)CCCN1Cc2ccccc2C(CN)C1c1ccc(-c2ccccc2)cc1 (stereo not drawn) [TRG 2413-7] | IC50 [1]: 1540 nM
54.2 | 48.7 | NCCN1Cc2ccccc2C(CNC2CCCCC2)C1c1cccc(Oc2ccc(Cl)c(Cl)c2)c1 (stereo not drawn) [TRG 2405-33] | –
35.2 | 43.9 | CNC(CN)CN1Cc2ccccc2C(CNC2CCCCC2)C1c1ccccc1 (stereo not drawn) [TRG 2405-91] | –
– | – | CNC(CN)CCCCN1Cc2ccccc2C(CNC2CCCCC2)C1c1cccc(Oc2ccccc2)c1 (stereo not drawn) [TRG 2405-230] | % Disp. of 125I-HP 467 (first of duplicate): 89.2%; % Disp. of 125I-HP 467 (second of duplicate): 84.2%
24.7 | 33.5 | CNC(CN)CN1Cc2ccccc2C(CNC2CCCCC2)C1c1ccncc1 (stereo not drawn) [TRG 2405-164] | –
47.9 | 55.6 | CNC(CN)CN1Cc2ccccc2C(CNC2CCCCC2)C1c1cccc(Oc2ccc(Cl)c(Cl)c2)c1 (stereo not drawn) [TRG 2405-123] | –
49 | 51.8 | CNC(CN)CN1Cc2ccccc2C(CNC2CCCCC2)C1c1ccc(OC)c(C)c1 (mixture of isomers) [TRG 2405-136] | –
0 | 26.1 | NCCN1Cc2ccccc2C(CNC2CCCCC2)C1c1cccc2c1OCO2 (stereo not drawn) [TRG 2405-8] | –
61.9 | 50.8 | NCCN1Cc2ccccc2C(CNC2CCCCC2)C1c1cccc(Oc2ccccc2)c1 (stereo not drawn) [TRG 2405-50] | –
– | – | NCC(CCCN1Cc2ccccc2C(CNC2CCCCC2)C1c1ccc([N+](=O)[O-])cc1)NCCc1ccccc1 (stereo not drawn) [TRG 2413-14] | IC50 [1]: 1570 nM
– | – | CNC(CN)CCCN1Cc2ccccc2C(CN)C1c1ccc(-c2ccccc2)cc1 (stereo not drawn) [TRG 2413-8] | IC50 [1]: 1840 nM
– | – | CNC(CN)CCCCN1Cc2ccccc2C(CNC2CCCCC2)C1c1ccc(Cl)c(Cl)c1 (stereo not drawn) [TRG 2405-206] | % Disp. of 125I-HP 467 (first of duplicate): 75%; % Disp. of 125I-HP 467 (second of duplicate): 69%
59.5 | 61.6 | CNC(CN)CN1Cc2ccccc2C(CNC2CCCCC2)C1c1ccc2ccccc2c1 (stereo not drawn) [TRG 2405-110] | –
– | – | CNC(CN)CCCCN1Cc2ccccc2C(CNC2CCCCC2)C1c1cc2c3c(c1O)CCCN3CCC2 (stereo not drawn) [TRG 2405-264] | % Disp. of 125I-HP 467 (first of duplicate): 35%; % Disp. of 125I-HP 467 (second of duplicate): 39.4%

% Disp. MC-1 10 μM (first of duplicate) [%] | % Disp. MC-1 10 μM (second of duplicate) [%] | Compound | also measured
28.5 | 26.2 | NCCN1Cc2ccccc2C(CNC2CCCCC2)C1c1cc(O)cc(O)c1 (stereo not drawn) [TRG 2405-29] | –
– | – | CCCCCNc1ccc(C2C(CNCCc3ccccc3)c3ccccc3CN2CCCCC(CN)NCc2ccccc2)cc1 (stereo not drawn) [TRG 2412-3] | IC50 [1]: 360 nM
– | – | CN[C@H](CN)CCCCN1Cc2ccccc2C(CNC2CCCCC2)C1c1cccc2ccccc12 (stereo partly drawn) [TRG 2405-185] | % Disp. of 125I-HP 467 (first of duplicate): 68.1%; % Disp. of 125I-HP 467 (second of duplicate): 60.4%
– | – | CNC(CN)CCCCN1Cc2ccccc2C(CNC2CCCCC2)C1c1ccc([N+](=O)[O-])c(O)c1 (mixture of isomers) [TRG 2405-250] | % Disp. of 125I-HP 467 (first of duplicate): 34.7%; % Disp. of 125I-HP 467 (second of duplicate): 50.5%
– | – | CNC(CN)CCCCN1Cc2ccccc2C(CNC2CCCCC2)C1c1cccc(Br)c1 (stereo not drawn) [TRG 2405-217] | % Disp. of 125I-HP 467 (first of duplicate): 74.5%; % Disp. of 125I-HP 467 (second of duplicate): 68.8%
58.2 | 61.1 | CNC(CN)CN1Cc2ccccc2C(CNC2CCCCC2)C1c1cc(Cl)cc(Cl)c1Cl (stereo not drawn) [TRG 2405-97] | –
– | – | CCCCNc1ccc(C2C(CN)c3ccccc3CN2CCCC(CN)NCCc2ccc(Br)cc2)cc1 (stereo not drawn) [TRG 2409-222] | IC50 [2]: 120 nM
– | – | CCCCNc1ccc(C2C(CN)c3ccccc3CN2CCCCC(CN)NCC)cc1 (stereo not drawn) [TRG 2411-101] | IC50 [2]: 100 nM
– | – | CNC(CN)CCCCN1Cc2ccccc2C(CNC2CCCCC2)C1c1cc(Cl)cc(Cl)c1 (stereo not drawn) [TRG 2405-210] | % Disp. of 125I-HP 467 (first of duplicate): 76.5%; % Disp. of 125I-HP 467 (second of duplicate): 69.6%
34.7 | 44.7 | CNC(CN)CN1Cc2ccccc2C(CNC2CCCCC2)C1c1ccccc1OC (stereo not drawn) [TRG 2405-109] | –
67.6 | 67.8 | CNC(CN)CN1Cc2ccccc2C(CNC2CCCCC2)C1c1cccc(Oc2ccccc2)c1 (stereo not drawn) [TRG 2405-140] | –
– | – | CNC(CN)CCCCN1Cc2ccccc2C(CNC2CCCCC2)C1c1ccnc2ccccc12 (stereo not drawn) [TRG 2405-255] | % Disp. of 125I-HP 467 (first of duplicate): 29.2%; % Disp. of 125I-HP 467 (second of duplicate): 25.3%
– | – | CNC(CNC(CN)CCCN1Cc2ccccc2C(CNC2CCCCC2)C1c1ccc(-c2ccccc2)cc1)Cc1ccccc1 (stereo not drawn) [TRG 2411-130] | IC50 [2]: 920 nM
32.1 | 54.3 | NCCN1Cc2ccccc2C(CNC2CCCCC2)C1c1ccc(Br)cc1 (stereo not drawn) [TRG 2405-62] | –
– | – | CNC(CN)CCCCN1Cc2ccccc2C(CNC2CCCCC2)C1c1cccnc1 (stereo not drawn) [TRG 2405-231] | % Disp. of 125I-HP 467 (first of duplicate): 25%; % Disp. of 125I-HP 467 (second of duplicate): 18.9%
– | – | NC[C@H](CCCCN1Cc2ccccc2C(CNCCc2ccccc2)C1c1ccc(-c2ccccc2)cc1)NCCc1ccccc1 (stereo partly drawn) [TRG 2411-3] | IC50 [2]: 880 nM
– | – | CCNC(CN)CCCCN1Cc2ccccc2C(CNCCc2ccccc2)C1c1ccc(-c2ccccc2)cc1 (stereo not drawn) [TRG 2411-2] | IC50 [2]: 550 nM
– | – | CCCCCc1ccc(C2C(CNCCc3ccccc3)c3ccccc3CN2CCCCC(CN)NC)cc1 (stereo not drawn) [TRG 2412-13] | IC50 [1]: 450 nM
– | – | CNC(CN)CCCCN1Cc2ccccc2C(CNC2CCCCC2)C1c1ccncc1 (stereo not drawn) [TRG 2405-254] | % Disp. of 125I-HP 467 (first of duplicate): 24.9%; % Disp. of 125I-HP 467 (second of duplicate): 29.1%
– | – | CNC(CN)CCCCN1Cc2ccccc2C(CNC2CCCCC2)C1c1ccc(Br)o1 (stereo not drawn) [TRG 2405-269] | % Disp. of 125I-HP 467 (first of duplicate): 55.9%; % Disp. of 125I-HP 467 (second of duplicate): 57.7%
– | – | CCCCCc1ccc(C2C(CNCCc3ccccc3)c3ccccc3CN2CCCC(CN)NC)cc1 (stereo not drawn) [TRG 2412-28] | IC50 [1]: 270 nM
1.3 | 9 | CN(C)CCCOc1ccc(C2C(CNC3CCCCC3)c3ccccc3CN2CCN)cc1 (stereo not drawn) [TRG 2405-54] | –
85.3 | 24.1 | NCCN1Cc2ccccc2C(CNC2CCCCC2)C1c1ccccc1 (mixture of isomers) [TRG 2405-1] | –
50.1 | 57.7 | NCCN1Cc2ccccc2C(CNC2CCCCC2)C1c1ccc(Oc2ccccc2)cc1 (stereo not drawn) [TRG 2405-72] | –
26.1 | 41.7 | CNC(CN)CN1Cc2ccccc2C(CNC2CCCCC2)C1c1ccc([N+](=O)[O-])c(O)c1 (mixture of isomers) [TRG 2405-160] | –
32.3 | 23.1 | NCCN1Cc2ccccc2C(CNC2CCCCC2)C1c1cccc(O)c1 (stereo not drawn) [TRG 2405-43] | –

Source: patent publication US6608082B1, “Treatment of erectile dysfunction using isoquinoline compound melanocortin receptor ligands” (Lion Bioscience AG, priority 1998, dated 2003)
